Source: patent US5919761A, “Peptides for heparin and low molecular weight heparin anticoagulation reversal” (The Board of Regents of the University of Michigan, priority 1995, dated 1999)
Where “and” joins values, the source holds several entries; their conditions need not be identical. Identical values can stand only once. Peptide text beside a SMILES is read from it.

Experiments:
[1] = tested on: LMWH (LHN-1, Logiparin); assay: Percent reversal of LMWH anticoagulation, agents administered at different rates, canine study; format: in vivo, dogs
Protocol: Anticoagulation reversal was assessed by a number of standard coagulation tests performed upon samples of venous blood in the manner described hereinabove. Measurements were made 3 minutes prior to heparin reversal (baseline) and 3 minutes, 10 minutes, and 30 minutes post-administration of the heparin reversal agent.

[2] = Platelet count, leukocyte count and bleeding time after LMWH reversal at different rates, canine study; format: in vivo, dogs
Protocol: (§1) The anticoagulation-reversing agents were administered rapidly over 10 seconds to maximize hemodynamic effects or more slowly over a 3 minute interval. Changes in LMWH anticoagulation occurring from metabolism alone were determined in a separate group of dogs not given any reversal agent.

[3] = tested on: standard heparin; assay: Percent reversal of standard heparin anticoagulation by peptide [+18BE] administered at different rates, dogs; format: in vivo
[4] = tested on: standard, unfractionated heparin; assay: Factor Xa and IIa reversal after standard heparin, cell adhesion ligand analogs, canine study; format: in vivo; settings: dogs, 3 min post administration
Protocol: Anticoagulation reversal was assessed by a number of standard coagulation tests performed upon samples of venous blood in the manner described hereinabove. Measurements were made 3 minutes prior to heparin reversal (baseline) and 3 minutes, 10 minutes, and 30 minutes post-administration of the heparin reversal agent. […] Referring to FIGS. 4a through 4d, compound [+18RGD] performs as well, or better, than n-protamine in the standard coagulation tests performed in these studies.

[5] = Percent change in platelet count after standard heparin reversal, cell adhesion ligand analogs, canine study; format: in vivo; settings: dogs, agent over 10 seconds
Protocol: In addition to hemodynamic changes, Table 15 lists the percent change in platelet count following administration of n-protamine and the selected variants, as well as the factor Xa and factor IIa reversal, as a percent change at 3 minutes post administration of the compound.

[6] = tested on: LMWH (Enoxaparin); assay: Factor Xa and IIa reversal after LMWH Enoxaparin, canine study; format: in vivo; settings: dogs, 3 min
Protocol: Similar studies were conducted to assess the ability of the protamine-like peptide analogs described in this section to reverse the anticoagulation effects of the LMWH, Enoxaparin. FIG. 5a through FIG. 5d are graphical representations of LMWH anticoagulation activities achieved by n-protamine (Protamine [+21]), and compounds [+18BE], [+18KDEL], and [+18RGD] plotted as a percent of reversal against time in minutes. […] Referring to FIG. 5c, compound [+18RGD] dramatically outperforms n-protamine in reversing the heparin antifactor Xa activity of Enoxaparin.

[7] = Percent change in platelet count after Enoxaparin reversal, canine study; format: in vivo; settings: dogs, agent over 10 seconds
Protocol: (§2) Seven female dogs (mean weight 15-20 kg) received intravenous standard, unfractionated heparin (150 IU/kg IV) or LMWH (Enoxaparin, Rhone-Poulac, France; 100 IU/kg factor Xa activity) followed by reversal with commercial salmine protamine (n-protamine purchased from Eli Lilly, Indianapolis, Ind., 1.5 mg/kg (100 IU/mg) IV) or an anticoagulation-reversing agent which is a protamine-like peptide variant identified hereinbelow. In these studies, the anticoagulation-reversing agents were administered over a 10 second interval to maximize the hemodynamic effects.

[8] = Maximum hemodynamic changes and total toxicity score after Enoxaparin reversal, canine study; settings: dogs, agent over 10 seconds
Protocol: as §2

[9] = Hemodynamic studies and total toxicity score after LMWH reversal at different rates, canine study; settings: dogs, Logiparin
Protocol: as §1
Hemodynamic studies were conducted by measuring mean arterial pressure (MAP) in mm Mercury, maximum percent changes in cardiac output (CO) and systemic oxygen consumption (VO2), and heart rate (HR) in beats per minute. Measurements and calculations were made at baseline, before LMWH administration, 3 minutes before reversal, every 30 seconds for 5 minutes after reversal, and at 10, 20, and 30 minutes after reversal.
(§3) TTS were developed that reflected maximum declines in each of four parameters (MAP, CO, VO2 and HR) over the first 5 minutes after reversal in the same manner as described hereinabove.

[10] = Hemodynamic studies and total toxicity score after standard heparin reversal at different rates, dogs
Protocol: Hemodynamic studies were conducted by measuring mean arterial pressure (MAP) in mm Mercury, maximum percent changes in cardiac output (CO) and systemic oxygen consumption (VO2), and heart rate (HR) in beats per minute. Measurements and calculations were made at baseline, before LMWH administration, 3 minutes before reversal, every 30 seconds for 5 minutes after reversal.
as §3

[11] = Maximum hemodynamic changes and total toxicity score after standard heparin reversal, cell adhesion ligand analogs, canine study; settings: dogs, agent over 10 seconds
Protocol: In these studies, the anticoagulation-reversing agents were administered over a 10 second interval to maximize the hemodynamic effects.
Hemodynamic studies were conducted by measuring mean blood pressure (Mean BP) in mm Mercury, maximum percent changes in cardiac output (CO) and systemic oxygen consumption (VO2), and heart rate (HR) in beats per minute. Measurements and calculations were made at baseline, before administration of standard, unfractionated heparin, 3 minutes before reversal, every 30 seconds for 5 minutes after reversal.
Total toxicity scores (TTS) were developed in accordance with the method described hereinabove that reflected maximum declines in each of four parameters (MAP, CO, VO2 and HR) over the first 5 minutes after reversal.

[12] = Platelet and white cell counts after standard heparin reversal, canine study; format: in vivo; settings: dogs, 3 minutes post-reversal, resolved by about 30 minutes
Protocol: Anticoagulation reversal was assessed by a number of standard coagulation tests performed upon samples of venous blood: activated clotting time (ACT), prothrombin time (PT), activated partial thromboplastin time (aPTT), thrombin clotting time (TCT), heparin concentration by assay for FXa inhibitory activity (FXa), white cell count (WBC), and platelet counts (PLT). Measurements were made 3 minutes prior to heparin reversal (baseline) and 3 minutes and 30 minutes post-administration of the heparin reversal agent. The "Heparin" row sets forth the observed reversal as a consequence of expected heparin metabolism or degradation alone.

[13] = Hemodynamic studies and total toxicity score after standard heparin reversal, canine study; settings: dogs
[14] = administered over 10 sec, 3 min
[15] = administered over 10 sec, 10 min
[16] = administered over 10 sec, 30 min
[17] = administered over 3 min, 10 min
[18] = administered over 3 min, 30 min
[19] = dogs, Logiparin, administered over 10 sec
[20] = dogs, Logiparin, administered over 3 min

With `CC(=O)N[C@@H](CCC(=O)O)C(=O)N[C@@H](C)C(=O)N[C@@H](C)C(=O)N[C@@H](CCCCN)C(=O)N[C@@H](CCCCN)C(=O)N[C@@H](C)C(=O)N[C@@H](C)C(=O)N[C@@H](CCCCN)C(=O)N[C@@H](CCCCN)C(=O)N[C@@H](C)C(=O)N[C@@H](CCCCN)C(=O)N[C@@H](CCCCN)C(=O)N[C@@H](C)C(=O)N[C@@H](C)C(=O)N[C@@H](CCCCN)C(=O)N[C@@H](CCCCN)C(=O)N[C@@H](C)C(=O)N[C@@H](CCCCN)C(=O)N[C@@H](CCCCN)C(=O)N[C@@H](C)C(=O)N[C@@H](C)C(=O)N[C@@H](CCCCN)C(=O)N[C@@H](CCCCN)C(=O)N[C@@H](C)C(=O)N[C@@H](CCCCN)C(=O)N[C@@H](CCCCN)C(=O)N[C@@H](C)C(=O)N[C@@H](C)C(=O)N[C@@H](CCCCN)C(=O)N[C@@H](CCCCN)C(=O)N[C@@H](C)C(=O)N[C@@H](CCCCN)C(=O)N[C@@H](CCCCN)C(N)=O` [[+18BE], acetyl-EA2 (K2 A2 K2 A)4 K2 amide] (Ac-EAAKKAAKKAKKAAKKAKKAAKKAKKAAKKAKK-NH2) the “Percent reversal of LMWH anticoagulation, FNa” value [1, 14] was 99%, the “Percent reversal of LMWH anticoagulation, FXa” value [1, 14] was 73% and the “Percent reversal of LMWH anticoagulation, TCT” value [1, 14] was 100%. The “Percent reversal of LMWH anticoagulation, ACT” value [1, 15] was 78%, the “Percent reversal of LMWH anticoagulation, FNa” value [1, 15] was 83% and the “Percent reversal of LMWH anticoagulation, FXa” value [1, 15] was 51%. The “Percent reversal of LMWH anticoagulation, TCT” value [1, 15] was 95%, the “Percent reversal of LMWH anticoagulation, ACT” value [1, 16] was 81% and the “Percent reversal of LMWH anticoagulation, FNa” value [1, 16] was 79%. The “Percent reversal of LMWH anticoagulation, FXa” value [1, 16] was 59%, the “Percent reversal of LMWH anticoagulation, TCT” value [1, 16] was 95% and the “Percent reversal of LMWH anticoagulation, FNa” value ([1]; administered over 3 min, 3 min) was 94%. For the same compound, the “Percent reversal of LMWH anticoagulation, FXa” value ([1]; administered over 3 min, 3 min) was 91%, the “Percent reversal of LMWH anticoagulation, TCT” value ([1]; administered over 3 min, 3 min) was 100% and the “Percent reversal of LMWH anticoagulation, ACT” value [1, 17] was 95%. The “Percent reversal of LMWH anticoagulation, FNa” value [1, 17] was 99%, the “Percent reversal of LMWH anticoagulation, FXa” value [1, 17] was 68% and the “Percent reversal of LMWH anticoagulation, TCT” value [1, 17] was 100%. The “Percent reversal of LMWH anticoagulation, ACT” value [1, 18] was 97%, the “Percent reversal of LMWH anticoagulation, FNa” value [1, 18] was 84% and the “Percent reversal of LMWH anticoagulation, FXa” value [1, 18] was 60%. For the same compound, the “Percent reversal of LMWH anticoagulation, TCT” value [1, 18] was 99%, the “Percent reversal of LMWH anticoagulation, ACT” value ([1]; dogs, Logiparin, agent administered over 10 sec, 3 min post-administration) was 65% and the “Percent reversal of LMWH anticoagulation, ACT” value ([1]; dogs, Logiparin, agent administered over 3 min, 3 min post-administration) was 89%. The “Maximal decline in leukocyte count” value [2, 19] was -1%, the Maximal thrombocytopenia [2, 19] was -44% and the “Maximal decline in leukocyte count” value [2, 20] was -7%. For the same compound, the Maximal thrombocytopenia [2, 20] was -49%, the “thrombocytopenia (platelet count change)” value ([2]; dogs, Logiparin, by 10 minutes, administered over a 3 minute interval) was -8% and the platelet count rebound ([2]; dogs, Logiparin, by 30 minutes, administered over a 3 minute interval) was “+35%”. The bleeding time ([2]; selected animals, given over a 3 minute interval) was ≤ 8 min, the “Percent reversal of standard heparin anticoagulation, FNa” value [3, 14] was 100% and the “Percent reversal of standard heparin anticoagulation, FXa” value [3, 14] was 99%. The “Percent reversal of standard heparin anticoagulation, TCT” value [3, 14] was 100%, the “Percent reversal of standard heparin anticoagulation, ACT” value [3, 15] was 98% and the “Percent reversal of standard heparin anticoagulation, FNa” value [3, 15] was 99%. For the same compound, the “Percent reversal of standard heparin anticoagulation, FXa” value [3, 15] was 95%, the “Percent reversal of standard heparin anticoagulation, TCT” value [3, 15] was 98% and the “Percent reversal of standard heparin anticoagulation, ACT” value [3, 16] was 96%. The “Percent reversal of standard heparin anticoagulation, FNa” value [3, 16] was 100%, the “Percent reversal of standard heparin anticoagulation, FXa” value [3, 16] was 97% and the “Percent reversal of standard heparin anticoagulation, TCT” value [3, 16] was 98%. The “Percent reversal of standard heparin anticoagulation, FNa” value ([3]; administered over 3 min, 3 min) was 99%, the “Percent reversal of standard heparin anticoagulation, FXa” value ([3]; administered over 3 min, 3 min) was 99% and the “Percent reversal of standard heparin anticoagulation, TCT” value ([3]; administered over 3 min, 3 min) was 100%. For the same compound, the “Percent reversal of standard heparin anticoagulation, ACT” value [3, 17] was 98%, the “Percent reversal of standard heparin anticoagulation, FNa” value [3, 17] was 98% and the “Percent reversal of standard heparin anticoagulation, FXa” value [3, 17] was 97%. For the same compound, the “Percent reversal of standard heparin anticoagulation, TCT” value [3, 17] was 100%, the “Percent reversal of standard heparin anticoagulation, ACT” value [3, 18] was 98% and the “Percent reversal of standard heparin anticoagulation, FNa” value [3, 18] was 99%. The “Percent reversal of standard heparin anticoagulation, FXa” value [3, 18] was 96%, the “Percent reversal of standard heparin anticoagulation, TCT” value [3, 18] was 100% and the “Percent reversal of standard heparin anticoagulation, ACT” value ([3]; dogs (n=7), administered over 10 sec, 3 min post-administration) was 95%. The “Percent reversal of standard heparin anticoagulation, ACT” value ([3]; dogs (n=7), administered over 3 min, 3 min post-administration) was 98%, the “IIa Reversal” value [4] was 100% and the “Xa Reversal” value [4] was 99%. For the same compound, the “Platelet (percent change in platelet count)” value [5] was -46%, the “IIa Reversal” value [6] was 88% and the “Xa Reversal” value [6] was 40%. The “Platelet (percent change in platelet count)” value [7] was -35%, the “Maximum hemodynamic change, Mean BP” value ([8]; Enoxaparin 100 IU/kg, 5 minutes) was -1 mm Mercury and the “Total Toxicity Score (TTS)” value ([8]; Enoxaparin) was -3.89 and -3.89 ± 2.37. The “Maximum hemodynamic change, CO” value ([8]; Enoxaparin, 5 minutes) was -5%, the “Maximum hemodynamic change, HR” value ([8]; Enoxaparin, 5 minutes) was -4 beats/min and the “Maximum hemodynamic change, VO2” value ([8]; Enoxaparin, 5 minutes) was -6%. The “Total Toxicity Score” value ([9]; administered over 10 sec) was -2.3 ± 3.6, the ΔCO ([9]; administered over 10 sec) was -11% and the ΔHr ([9]; administered over 10 sec) was -13 beats per minute. For the same compound, the ΔMAP ([9]; administered over 10 sec) was -8 mm Mercury, the ΔVO2 ([9]; administered over 10 sec) was -12% and the “Total Toxicity Score” value ([9]; administered over 3 min) was -2.2 ± 1.7. For the same compound, the ΔCO ([9]; administered over 3 min) was -7%, the ΔHr ([9]; administered over 3 min) was -5 beats per minute and the ΔMAP ([9]; administered over 3 min) was 0 mm Mercury. For the same compound, the ΔVO2 ([9]; administered over 3 min) was -10%, the “Total Toxicity Score” value ([10]; administered over 10 sec) was -2.14 ± 0.40 and the ΔCO ([10]; administered over 10 sec) was -9%. The ΔHR ([10]; administered over 10 sec) was -8 beats per minute, the ΔMAP ([10]; administered over 10 sec) was -1 mm Mercury and the ΔVO2 ([10]; administered over 10 sec) was -9%. For the same compound, the “Total Toxicity Score” value ([10]; administered over 3 min) was -1.96 ± 0.55, the ΔCO ([10]; administered over 3 min) was -17% and the ΔHR ([10]; administered over 3 min) was -8 beats per minute. For the same compound, the ΔMAP ([10]; administered over 3 min) was 1 mm Mercury, the ΔVO2 ([10]; administered over 3 min) was -10% and the “Maximum hemodynamic change, Mean BP” value ([11]; standard heparin 150 IU/kg IV, 5 minutes) was -1 mm Mercury. The “Maximum hemodynamic change, CO” value ([11]; standard heparin, 5 minutes) was -9%, the “Maximum hemodynamic change, HR” value ([11]; standard heparin, 5 minutes) was -8 beats/min and the “Maximum hemodynamic change, VO2” value ([11]; standard heparin, 5 minutes) was -9%. The “Total Toxicity Score” value ([11]; standard unfractionated heparin) was -2.41 ± 0.47.
With `NCCCC[C@H](NC(=O)[C@H](CCCCN)NC(=O)[C@H](CCCCN)NC(=O)[C@H](CCCCN)NC(=O)CNC(=O)CNC(=O)[C@H](CCCCN)NC(=O)[C@H](CCCCN)NC(=O)[C@H](CCCCN)NC(=O)[C@H](CCCCN)NC(=O)CNC(=O)CNC(=O)[C@H](CCCCN)NC(=O)[C@H](CCCCN)NC(=O)[C@H](CCCCN)NC(=O)[C@H](CCCCN)NC(=O)CNC(=O)CNC(=O)[C@H](CCCCN)NC(=O)[C@H](CCCCN)NC(=O)[C@H](CCCCN)NC(=O)[C@H](CCCCN)NC(=O)CNC(=O)CNC(=O)[C@H](CCCCN)NC(=O)[C@H](CCCCN)NC(=O)[C@H](CCCCN)NC(=O)[C@H](CCCCN)NC(=O)[C@@H]1CCCN1)C(=O)O` [[+20], P(K4 G2)4 K4] (H-PKKKKGGKKKKGGKKKKGGKKKKGGKKKK-OH) the platelet counts [12] was “thrombocytopenia”, the ΔHR [13] was -38 and the ΔMAP ([13]; average maximum decline in first five minutes after peptide administration) was -31. The “average total toxicity score (TTS±SD)” value ([13]; first 5 minutes after reversal, more negative = more toxic) was -6.1±3.5, the ΔCO ([13]; maximum percent change) was -40% and the ΔVO2 ([13]; maximum percent change) was -31%.
